Experimental data published in US9359281B2, “Enantiomers of 2-hydroxy derivatives of fatty acids” (UNIVERSITAT DE LES ILLES BALEARS, priority 2011, dated 2016).

Columns and labels:
T98G cells [1] = experiment: Levels of SM in cell membranes, T98G; type: cell-based, human; settings: 200 μM [−]2OHOA
Experimental: (§1) The levels of SM, cultivated in the absence (control) or presence of 200 μM of [−]2OHOA, in normal cell membranes (MRC-5 and IMR90) were measured, and also in several types of tumoral cells (see Table 2). In all cases, we detected that the membranes of tumoral cells have SM levels of about half or a third of that in normal cells (FIG. 1). We can therefore assert that SM concentration is a biomarker which indicates tumorgenesis in human cells. On the other hand, treatments with the molecules of the present invention induce an increase of SM in the tumour cells which is not naturally occurring. […] For example, the spectrophotometry determination of solution fluorescence of the SM levels is a very simple, quick and efficient analysis method (FIG. 1D). Thus, this invention has generated a method for diagnosis for detecting the described pathological processes and pathologies in which there are SM level changes, and also for monitoring the efficiency of the therapy using molecules of the present invention and others of similar activity. Based on this knowledge, this invention also includes kits for diagnosing these diseases.

SF268 cells [2] = experiment: Levels of SM in cell membranes, SF268; type: cell-based, human; settings: SF268, 200 μM [−]2OHOA
Experimental: as §1

SH-SYSY cells = experiment: Levels of SM in cell membranes, SH-SYSY; type: cell-based, human; settings: 200 μM [−]2OHOA
Experimental: as §1

U937 cells = experiment: Levels of SM in cell membranes, U937; type: cell-based, human; settings: U937, 200 μM [−]2OHOA
Experimental: as §1

HepG2 cells = experiment: Levels of SM in cell membranes, HepG2; type: cell-based, human; settings: HepG2, 200 μM [−]2OHOA
Experimental: as §1

MDA-MB-231 cells = experiment: Levels of SM in cell membranes, MDA-MB-231; type: cell-based, human; settings: MDA-MB-231, 200 μM [−]2OHOA
Experimental: as §1

BXPC3 cells = experiment: Levels of SM in cell membranes, BXPC3; type: cell-based, human; settings: BXPC3, 200 μM [−]2OHOA
Experimental: as §1

HT29 cells = experiment: Levels of SM in cell membranes, HT29; type: cell-based, human; settings: HT29, 200 μM [−]2OHOA
Experimental: as §1

IMR90 cells = experiment: Levels of SM in cell membranes, IMR90; type: cell-based, human; settings: IMR90 non-tumoral fibroblast, 200 μM [−]2OHOA
Experimental: as §1

T98G cells [3] = experiment: Cell growth inhibition, T98G; type: cell-based, human; design: key: +: inhibition of cell growth; −: absence of effect
A172 cells = experiment: Cell growth inhibition, A172; type: cell-based, human; design: key: +: inhibition of cell growth; −: absence of effect
SF268 cells [4] = experiment: Cell growth inhibition, SF268; type: cell-based, human; design: key: +: inhibition of cell growth; −: absence of effect
1321N1 cells = experiment: Cell growth inhibition, 1321N1; type: cell-based, human; design: key: +: inhibition of cell growth; −: absence of effect
C-6 cells = experiment: Cell growth inhibition, C-6; type: cell-based, rat; design: key: +: inhibition of cell growth; −: absence of effect
enzyme EC 2.7.8.27 = experiment: Activity of enzyme EC 2.7.8.27 in cellular extracts (NBD-Cer); type: biochemical; settings: homogenised cells, 200 μM, NBD-Cer 2 hours
Experimental: FIG. 4. Compound 2OHOA acts directly on enzyme EC 2.7.8.27. In A, B, C, in all cases, we incubated cells or cellular extracts or means of incubation with the fluorescent stratum of this enzyme NBD-Cer (nitro-benzoxadiazol-il) ceramide], in the presence or absence (control, white bars) of 2OHOA (black bars). Then, we extracted the lipids and determined the levels of formation of NBD-SM per HPTLC (HP-TLC, high performance thin layer chromatography). The values are presented on the ordinate axis as the average±ESM (n=3-5).
B. In vitro experiment of the activity of enzyme EC 2.7.8.27 in cellular extracts, where we measured the activity of the enzyme after killing the cells. […] For these experiments, homogenised cells were incubated with compound 2OHOA (200 μM) and NBD-Cer for 2 hours.

Row | Structure (SMILES) | % SM after treatment (T98G cells [1]) [%] | % SM after treatment (SF268 cells [2]) [%] | % SM after treatment (SH-SYSY cells) [%] | % SM after treatment (U937 cells) [%] | % SM after treatment (HepG2 cells) [%] | % SM after treatment (MDA-MB-231 cells) [%] | % SM after treatment (BXPC3 cells) [%] | % SM after treatment (HT29 cells) [%] | % SM after treatment (IMR90 cells) [%] | Effect (anti-proliferation effect) (T98G cells [3]) | Effect (anti-proliferation effect) (A172 cells) | Effect (anti-proliferation effect) (SF268 cells [4]) | Effect (anti-proliferation effect) (1321N1 cells) | Effect (anti-proliferation effect) (C-6 cells) | activation of enzyme EC 2.7.8.27 in cellular extracts (enzyme EC 2.7.8.27)
1 | CCCCCCCC/C=C\CCCCCCC(O)C(=O)O (stereo not drawn) [[−]2OHOA] [[−] HOOC—HOCH—(CH2)6—(CH═CH—CH2)1—(CH2)6—CH3] | 19 | 26 | 22 | 24 | 35 | 31 | 26 | 21 | 23 | + | + | + | + | + | 
2 | CCCCCCCC/C=C\CCCCCCC(O)C(=O)O (racemic) [2OHOA, 2-hydroxyoleic acid] |  |  |  |  |  |  |  |  |  |  |  |  |  |  | able to activate enzyme EC 2.7.8.27 by direct interaction
